Data: US5495032A, “Process for producing 7-(substituted)-8-(substituted-9-[(substituted glycyl)amido]-6-demethyl-6-deoxytetracyclines” (priority 1994, dated 1996)
Where a name gives a salt, the structure may show the parent alone. Read-outs that look alike come from different tables or passages of the source.

Experiments:
Type in all cases: cell-based
S. aureus ROSE (MP) = assay: MIC, agar dilution method; conditions: Staphylococcus aureus, 18 h, 18 hours at 35° C.
S. aureus UBMS 88-4 = assay: MIC, agar dilution method; conditions: Staphylococcus aureus, UBMS884, 18 hours at 35° C., read-out: MIC
[1] = test system: X. maltophilia NEMC 87210; assay: MIC, agar dilution method; conditions: Stenotrophomonas maltophilia, NEMC87210, 18 h, 18 hours at 35° C.
E. coli #311 (MP) = assay: MIC, agar dilution method; conditions: Escherichia coli, 18 hours at 35° C., read-out: MIC
[2] = test system: S. aureus UBMS 90-2 Tet M; assay: microbe, parasite or virus in culture; conditions: Staphylococcus aureus, UBMS902TETM, 18 h, 18 hours at 35° C.
E. coli J3272 Tet C = assay: microbe, parasite or virus in culture; conditions: Escherichia coli, J3272TETC, 18 h
S. aureus SMITH (MP) = assay: MIC, agar dilution method; conditions: Staphylococcus aureus, 18 hours at 35° C.
[3] = test system: E. coli MC 4100 Tet sens.; assay: MIC, agar dilution method; conditions: Escherichia coli, 18 hours at 35° C., read-out: MIC
E. coli UBMS 90-4 Tet M = assay: microbe, parasite or virus in culture; conditions: Escherichia coli, UBMS904TETM, 18 h, 18 hours at 35° C.
E. coli ATCC 25922 = assay: MIC, agar dilution method; conditions: Escherichia coli, ATCC25922, 18 hours at 35° C., read-out: MIC
[4] = test system: Ps. acruginosa ATCC 27853; assay: MIC, agar dilution method; conditions: Ps. acruginosa ATCC 27853; 18 hours at 35° C.; read-out: MIC
[5] = test system: E. coli MC 4100 TNIOC Tet B; assay: microbe, parasite or virus in culture; conditions: Escherichia coli, 18 h, 18 hours at 35° C.
E. coli J3272 Tet D = assay: microbe, parasite or virus in culture; conditions: Escherichia coli, J3272TETD, 18 h
[6] = test system: E. coli UBMS 89-2 Tet sens; assay: MIC, agar dilution method; conditions: Escherichia coli, UBMS892TETSENS, 18 h, 18 hours at 35° C., read-out: MIC
E. coli UBMS 90-5 sens = assay: MIC, agar dilution method; conditions: Escherichia coli, UBMS905SENS, 18 hours at 35° C., read-out: MIC
[7] = test system: S. aureus UBMS 90-1 Tet M; assay: microbe, parasite or virus in culture; conditions: Staphylococcus aureus, UBMS901TETM, 18 h, 18 hours at 35° C.
S. aureus ATCC 29213 = assay: MIC, agar dilution method; conditions: Staphylococcus aureus, ATCC29213, 18 h, 18 hours at 35° C.
[8] = test system: S. hemolyticus AVHAH 88-3; assay: MIC, agar dilution method; conditions: Streptococcus pyogenes, AVHAH883, 18 h, 18 hours at 35° C.
E. coli PRP1 Tet A = assay: microbe, parasite or virus in culture; conditions: Escherichia coli, PRP1TETA, 18 h, 18 hours at 35° C.
S. aureus IVES 1 983 = assay: MIC, agar dilution method; conditions: Staphylococcus aureus
E. coli J2175 = assay: MIC, agar dilution method; conditions: Escherichia coli, 18 hours at 35° C., read-out: MIC
S. aureus UBMS 90-3 = assay: MIC, agar dilution method; conditions: Staphylococcus aureus, UBMS903, 18 h
S. mariescens FPOR 8733 = assay: MIC, agar dilution method; conditions: 18 h, 18 hours at 35° C.
[9] = test system: S. aureus UBMS 88-7 Tet K; assay: microbe, parasite or virus in culture; conditions: Staphylococcus aureus, UBMS887TETK, 18 h, 18 hours at 35° C.
E. coli BAJ9003 IMP MUT = assay: microbe, parasite or virus in culture; conditions: Escherichia coli, BAJ9003IMPMUT, 18 h, 18 hours at 35° C.
[10] = test system: S. aureus UBMS 88-5 Tet M; assay: microbe, parasite or virus in culture; conditions: Staphylococcus aureus, UBMS885TETM, 18 h
Enterococcus 12201 = assay: MIC, agar dilution method; conditions: Enterococcus, 12201, 18 h, 18 hours at 35° C.
S. aureus NEMC 8769 = assay: MIC, agar dilution method; conditions: Staphylococcus aureus, NEMC8769, 18 h
E. coli UBMS 89-1 Tet M = assay: microbe, parasite or virus in culture; conditions: Escherichia coli, UBMS891TETM, 18 h, 18 hours at 35° C.
E. coli UBMS 88-1 Tet B = assay: microbe, parasite or virus in culture; conditions: Escherichia coli, UBMS881TETB, 18 h, 18 hours at 35° C.
S. aureus IVES 2943 = assay: MIC, agar dilution method; conditions: Staphylococcus aureus
E. faecalis ATCC 29212 = assay: MIC, agar dilution method; conditions: Enterococcus faecalis

Compound	MIC (S. aureus ROSE (MP)) [mg/L]	MIC (S. aureus UBMS 88-4) [mg/L]	MIC [1] [mg/L]	MIC (E. coli #311 (MP)) [mg/L]	MIC [2] [mg/L]	MIC (E. coli J3272 Tet C) [mg/L]	MIC [3] [mg/L]	MIC (E. coli UBMS 90-4 Tet M) [mg/L]	MIC (E. coli ATCC 25922) [mg/L]	MIC [4] [mg/L]	MIC [5] [mg/L]	MIC (E. coli J3272 Tet D) [mg/L]	MIC [6] [mg/L]	MIC (E. coli UBMS 90-5 sens) [mg/L]	MIC [7] [mg/L]	MIC (S. aureus ATCC 29213) [mg/L]	MIC [8] [mg/L]	MIC (E. coli PRP1 Tet A) [mg/L]	MIC (E. coli J2175) [mg/L]	MIC (S. aureus UBMS 90-3) [mg/L]	further results
CN(C)[C@@H]1C(O)=C(C(N)=O)C(=O)[C@@]2(O)C(O)=C3C(=O)c4c(cc(Cl)c(NC(=O)CN5CCCC5)c4O)CC3CC12 (stereo partly drawn) [E, [7S-(7α,10aα)]-N-[9-(Aminocarbonyl)-3-chloro-7-(dimethylamino)-5,5a,6,6a,7, 10,10a,12-octahydro-1,2,10a,11-tetrahydroxy-10,12-dioxo-2-naphthacenyl]-1-pyrrolidineacetamide dihydrochloride]	8	0.25	1	0.25	0.25	1	0.25	1	0.25	32	1	0.25	1	1	0.25	0.25	2	2	1	0.12	MIC (S. aureus SMITH (MP); 18 h): 0.25 mg/L; MIC (S. aureus IVES 1 983; IVES1983, S. aureus IVES 1 983, 18 hours at 35° C., read-out: MIC): 4 mg/L; MIC (S. mariescens FPOR 8733): 8 mg/L; MIC [9]: 2 mg/L; MIC (E. coli BAJ9003 IMP MUT): 0.12 mg/L; MIC [10]: 0.25 mg/L; MIC (Enterococcus 12201): 0.25 mg/L; MIC (S. aureus NEMC 8769): 0.25 mg/L; MIC (E. coli UBMS 89-1 Tet M): 0.25 mg/L; MIC (E. coli UBMS 88-1 Tet B): 1 mg/L; MIC (S. aureus IVES 2943; IVES2943, S. aureus IVES 2943, 18 hours at 35° C., read-out: MIC): 4 mg/L; MIC (E. faecalis ATCC 29212; ATCC29212, 18 hours at 35° C., read-out: MIC): 0.12 mg/L
CCCCCNCC(=O)Nc1c(Cl)cc2c(c1O)C(=O)C1=C(O)[C@]3(O)C(=O)C(C(N)=O)=C(O)[C@@H](N(C)C)C3CC1C2 (stereo partly drawn) [H, [4S-(4α,12aα)]-8-Chloro-4-(dimethylamino)-1,4,4a,5,5a,6,11,12a-octahydro-3, 10,12,12a-tetrahydroxy-1,11-dioxo-9-[[(pentylamino)acetyl]amino]-2-naphthacenecarboxamide dihydrochloride]	8	0.5	4	2	0.25	2	0.25	2	2	> 32	2	1	2	2	2	0.5	4	2	2	0.25	MIC (S. aureus SMITH (MP); read-out: MIC): 0.5 mg/L; MIC (S. aureus IVES 1 983; IVES1983, 18 h): 4 mg/L; MIC (S. mariescens FPOR 8733): 16 mg/L; MIC [9]: 4 mg/L; MIC (E. coli BAJ9003 IMP MUT): 0.25 mg/L; MIC [10]: 1 mg/L; MIC (Enterococcus 12201): 0.25 mg/L; MIC (S. aureus NEMC 8769): 0.5 mg/L; MIC (E. coli UBMS 89-1 Tet M): 0.5 mg/L; MIC (E. coli UBMS 88-1 Tet B): 2 mg/L; MIC (S. aureus IVES 2943; IVES2943, 18 h): 8 mg/L; MIC (E. faecalis ATCC 29212; ATCC29212, 18 h, 18 hours at 35° C.): 0.12 mg/L
